According to PubChem BioAssay (NCI):
“And” between values parts separate entries of the source, which are not always exact repeats. Identical values can stand only once.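 Where inhibition never reached the appropriate level, the endpoint shown equals the highest concentration tested. Otherwise, values were interpolated linearly from a five-concentration, 48-hour dose response in 96-well plates. Here, GI50 denotes the concentration required for 50% inhibition of growth. Definition used: TGI = concentration required for complete inhibition of growth.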

What was measured:
Test in all cases: NCI tumour cell line growth inhibition, 48 h
786-0 renal = test system: 786-0 renal
ACHN renal = test system: ACHN renal
COLO 205 colon = test system: COLO 205 colon
M19-MEL melanoma = test system: M19-MEL melanoma
HT29 colon = test system: HT29 colon
RPMI-8226 leukemia = test system: RPMI-8226 leukemia
DLD-1 colon = test system: DLD-1 colon
SR leukemia = test system: SR leukemia
MDA-MB-435 = test system: MDA-MB-435
NCI/ADR-RES ovarian = test system: NCI/ADR-RES ovarian

Row | Compound | TGI (786-0 renal) | TGI (ACHN renal) | TGI (COLO 205 colon) | TGI (M19-MEL melanoma) [µM] | TGI (HT29 colon) | TGI (RPMI-8226 leukemia) | TGI (DLD-1 colon) [µM] | TGI (SR leukemia) | GI50 (786-0 renal) | GI50 (ACHN renal) | GI50 (COLO 205 colon) | GI50 (MDA-MB-435) [µM] | TGI (MDA-MB-435) [µM] | GI50 (NCI/ADR-RES ovarian) | TGI (NCI/ADR-RES ovarian) | GI50 (SR leukemia) | GI50 (HT29 colon) | GI50 (RPMI-8226 leukemia)
1 | O=S(=O)(c1ccccc1)N1CCC1c1ccccc1 (stereo not given) | > 100 µM | > 100 µM | > 100 µM | > 100 | > 100 µM | > 100 µM |  |  |  |  |  |  |  |  |  |  |  | 
2 | CCOP(=O)(OCC)C(C(=O)OC)C(=O)C(=O)Nc1cccc([N+](=O)[O-])c1 (stereo not given) | > 100 µM | > 100 µM | > 100 µM | > 100 | > 100 µM |  | > 100 | > 100 µM |  |  |  |  |  |  |  |  |  | 
3 | CN(c1ccccc1)c1nc(=[N+](C)C)ss1 | > 100 µM | > 100 µM |  | > 100 | > 100 µM |  | > 100 |  |  |  |  |  |  |  |  |  |  | 
4 | O=C1/C(=C/c2cc(O)c(O)c(O)c2)Oc2cc(O)cc(OC3OC(CO)C(O)C(O)C3O)c21 (stereo not given) | > 100 µM | 25.7 µM | 54.1 µM | 37.1 | 59.5 µM | 67.9 µM | 42.4 |  |  |  |  |  |  |  |  |  |  | 
5 | c1ccc2[nH]c(-c3ccc(Nc4nc(N5CCCC5)nc5[nH]ncc45)cc3)nc2c1 | 0.347 µM | 1.07 µM | 0.486 µM |  | 0.495 µM | 0.528 µM |  | 0.87 µM | 0.17 µM | 0.347 µM | 0.217 µM | 1.48 | 3.08 | 0.392 µM | 1.47 µM | 0.254 µM | 0.211 µM | 0.221 µM
6 | Clc1ccc(NCNC2Nc3ccccc3N2)cc1Cl | > 100 µM | > 100 µM | > 100 µM |  | 64 µM | > 100 µM |  | > 100 µM |  |  |  |  | 93.2 |  | > 100 µM |  |  | 
7 | COc1cc(-c2csc(NC(=O)Nc3ccc(Cl)cc3)n2)cc(OC)c1OC | 7.83 µM | 7.35 µM | 7.05 µM |  | 12.4 µM | 5.78 µM |  | > 100 µM | 2.35 µM | 2.53 µM | 2.52 µM | 2.17 | 5.88 | 2.7 µM | 8.65 µM | 4.36 µM | 3.01 µM | 2.14 µM
8 | CC1COS(=O)N1c1ccccc1 (stereo not given) | > 100 µM | > 100 µM | > 100 µM | > 100 | > 100 µM | > 100 µM | > 100 |  |  |  |  |  |  |  |  |  |  | 
9 | N#CSc1c[nH]c2ccc(/C=C/C(=O)/C=C(O)/C=C/c3ccc4[nH]cc(SC#N)c4c3)cc12 | 9.53 µM | 3.3 µM | 3.7 µM |  | 3.84 µM | 5.98 µM |  | 6.14 µM | 0.956 µM | 0.568 µM | 1.55 µM | 2.06 | 7.03 | 3.22 µM | 52.7 µM | 0.505 µM | 1.42 µM | 1.56 µM
10 | CCOc1ccc2c(c1)[n+]([O-])c(C(N)=O)c(N)[n+]2[O-] | > 100 µM | > 100 µM | > 100 µM | > 100 | > 100 µM |  | > 100 | > 100 µM |  |  |  |  |  |  |  |  |  | 
11 | O=C1C2C3SC(c4cc5ccccc5cc43)C2C(=O)N1c1ccccc1 (stereo not given) | > 100 µM | > 100 µM | > 100 µM | > 100 | > 100 µM | > 100 µM |  |  |  |  |  |  |  |  |  |  |  | 
12 | O=C1CN=C(c2ccccc2)c2ccncc2N1 | > 100 µM | > 100 µM | > 100 µM | > 100 | > 100 µM |  | > 100 | > 100 µM |  |  |  |  |  |  |  |  |  | 
13 | N#Cc1cnc2ccc(NCc3cnc[nH]3)cc2c1Nc1ccc(F)c(Cl)c1 | > 100 µM | > 100 µM | > 100 µM |  | > 100 µM | > 100 µM |  | > 100 µM | 9.21 µM | 2.88 µM | > 100 µM | 14.7 | 88.5 | > 100 µM | > 100 µM | 5.65 µM | > 100 µM | > 100 µM
14 | CCN(Cc1ccccc1)c1ccc(/C=C2\COc3ccccc3C2=O)cc1 | > 1000 µM | > 1000 µM | > 1000 µM |  | > 1000 µM | > 1000 µM |  | > 1000 µM | > 1000 µM | > 1000 µM | > 1000 µM | 47 | 458 | 351 µM | > 1000 µM | 54 µM | 135 µM | 146 µM
15 | CCCCCOC(=O)c1c(C)[nH]c(/C=C2\N=C(c3ccc[nH]3)C=C2OC)c1C | 0.397 µM | 1.21 µM | 1.04 µM |  | 1.34 µM | 0.24 µM |  | 0.0403 µM | 0.0468 µM | 0.0396 µM | 0.0331 µM | 0.0348 | 0.734 | 0.0391 µM | 1.33 µM | < 0.0107 µM | 0.0154 µM | 0.028 µM
16 | C/C(=C1\C(=O)Nc2ccccc21)c1cccc(/C(C)=C2/C(=O)Nc3ccccc32)n1 | 89.6 µM | 48.1 µM | > 100 µM |  | > 100 µM | > 100 µM |  | > 100 µM | 17.3 µM | 8.56 µM | 7.32 µM | 2.57 | 13.4 | 4.93 µM | 44.8 µM | 4.96 µM | 8.09 µM | 4.87 µM
17 | Cc1cc(NC(=O)NCCCOc2ccc(N3C(N)=NC(N)=NC3(C)C)cc2Cl)ccc1S(=O)(=O)F | > 100 µM | > 100 µM | 17.5 µM |  | 53.9 µM | > 100 µM |  | > 46.2 µM | 2.46 µM | 11.3 µM | 1.17 µM | 0.577 | 33.2 | > 100 µM | > 100 µM | 0.369 µM | 0.333 µM | 5.78 µM
18 | CC(NC(=O)c1ccc(Cl)c(Cl)c1)c1ccc(-c2ccccc2)cc1 (stereo not given) | 47.5 µM | > 100 µM | > 100 µM |  | > 100 µM | > 100 µM |  | 40.3 µM |  |  |  |  | > 100 |  | > 100 µM |  |  | 
19 | COc1ccc(CC(C)NCC(O)c2ccc(O)c(NC=O)c2)cc1 (stereo not given) | > 100 µM | > 100 µM | > 100 µM |  | > 100 µM | > 100 µM |  | > 100 µM |  |  |  |  | > 100 |  | > 100 µM |  |  | 
20 | CC[C@@H]1C(=O)N(C)c2cnc(Nc3ccc(C(=O)NC4CCC(N5CCN(CC6CC6)CC5)CC4)cc3OC)nc2N1C(C)C (stereo not given in full) | > 3.29 µM and 1.28 µM | > 10 µM and 13.6 µM | 0.276 µM and 0.268 µM |  | 2.07 µM and 1.35 µM | 1.62 µM and 1.89 µM |  | 1.32 µM and 1.51 µM | 0.0614 µM and 0.0721 µM | 0.305 µM and 0.222 µM | 0.00438 µM and < 0.01 µM | < 0.01 | 0.0134 | 0.249 µM and 0.245 µM | > 10 µM and 28.9 µM | 0.0134 µM and 0.0123 µM | 0.00436 µM and < 0.01 µM | 0.0382 µM and 0.0558 µM
